According to publication PMC6973020, “Quinoline‐Conjugated Ruthenacarboranes: Toward Hybrid Drugs with a Dual Mode of Action” (Chemmedchem, 2019):
“Also recorded” adds a separate entry of the source.

Assays:
[1] = tested on: MCF‐7 human breast adenocarcinoma; test: MTT cell viability assay, MCF‐7; format: cell-based; details: 72 h
Excerpt: (§1) Thus, care must be taken when comparing their biological activities with those of our previous studies, even with the same cell line, because the covalent vs. non‐covalent combination of drugs might imply different mechanisms of action in the cell.44 Here, we studied the in vitro activity of ruthenacarborane 3, i. e. free acid, and its 8‐hydroxyquinolyl (4) and 4‐{(7‐chloroquinolin‐4‐yl)oxy}butanol‐1‐yl (5) esters, against a panel of cancer cell lines (B16 mouse melanoma, A375 human skin melanoma, MCF‐7 human breast adenocarcinoma, LN229 human glioblastoma, U251 human glioma). Human fibroblast cell line MRC‐5, murine microglial cell line BV‐2 as well as peritoneal exudate cells (Mph), were chosen as models for non‐malignant cells. […] On the other side, we wanted to assess the reproducibility of the viability data, under either controlled (with BSA) or uncontrolled (without BSA) conditions, in two sets of independent assays. […] Cells were exposed to 3–5 for 72 h, after which cell viability was determined via 3‐(4,5‐dimethylthiazol‐2‐yl)‐2,5‐diphenyltetrazolium bromide (MTT) and crystal violet (CV) assays, in parallel (Table 2). Cisplatin was also tested as reference.
(§2) Preparation of drug solutions. […] Stock solution of cisplatin was prepared in DMF (10 mM) immediately before use. A stock solution of BSA in PBS was prepared at 1.28 mM concentration, and stored at 4 °C in the dark. […] Alternatively, 3 or 4 (DMSO stock solution) were added to the BSA solution in PBS, always with a 10 : 1 molar ratio of BSA to ruthenacarborane. The BSA−ruthenacarborane solutions were incubated 0.5–1 h at room temperature, then diluted with cell culture medium to the desired final concentrations. Final concentrations of 3 and 4 were the same as for the BSA‐free formulation. Final DMSO was 0.02–0.5 vol %.
(§3) Colorimetric assays for cellular viability. […] For counting the number of attached (viable) cells, cells were fixed with 4 % (w/v) paraformaldehyde for 10 min at room temperature, and subsequently stained for 15 min with […] crystal violet (CV) solution. Cells were then washed with tap water, dried in air, and the CV dye was dissolved in 33 % (w/v) acetic acid solution. For the detection of mitochondrial respiration, cells were cultivated in MTT staining solution (0.5 mg mL^−1) for approximately 1 h. The dye was then discarded, and the formed formazan (purple) was dissolved in DMSO. The absorbance was measured with an automated microplate reader at λmax 540 nm, with the reference λmax 670 nm. Untreated cells or cells treated only with BSA (control) were also measured, as reference for BSA‐free and BSA‐containing drug formulations, respectively. […] Cell viability is expressed as percentage (%) relative to control (untreated cultures).58 Experiments were run in three independent replicates. […]

[2] = tested on: MCF‐7 human breast adenocarcinoma; test: Crystal violet (CV) cell viability assay, MCF‐7; format: cell-based; details: 72 h
Excerpt: as §1, §2, §3

[3] = tested on: murine microglial cell line BV‐2; test: Crystal violet (CV) cell viability assay, BV‐2; format: cell-based, mouse; details: 72 h
Excerpt: as §1
(§4) Preparation of drug solutions. […] Stock solution of cisplatin was prepared in DMF (10 mM) immediately before use. A stock solution of BSA in PBS was prepared at 1.28 mM concentration, and stored at 4 °C in the dark. […] Alternatively, 3 or 4 (DMSO stock solution) were added to the BSA solution in PBS, always with a 10 : 1 molar ratio of BSA to ruthenacarborane. […]
(§5) Colorimetric assays for cellular viability. […] The absorbance was measured with an automated microplate reader at λmax 540 nm, with the reference λmax 670 nm. Untreated cells or cells treated only with BSA (control) were also measured, as reference for BSA‐free and BSA‐containing drug formulations, respectively. […] Cell viability is expressed as percentage (%) relative to control (untreated cultures).58 Experiments were run in three independent replicates. […]

[4] = Stability in water‐containing DMSO‐d6 (NMR spectroscopy); format: physicochemical; details: in air, 1H and 11B{1H} NMR, over one month
Procedure: NMR spectroscopy. To determine the stability in biocompatible organic solvents, 3–5 (each ca. 3 mg) were dissolved in water‐containing DMSO‐d6 (0.6 mL) in air at room temperature, and periodically frozen (4–5 °C) and unfrozen. The solutions were analyzed with ^1H and ^11B{^1H} NMR spectroscopy over a period of one month.

[5] = tested on: Human fibroblast cell line MRC‐5; test: Crystal violet (CV) cell viability assay, MRC‐5; format: cell-based; details: 72 h
Excerpt: as §1, §4, §5

Row | Substance | IC50 [1] [µM] | IC50 [2] [µM] | IC50 [3] [µM] | stability in water‐containing DMSO‐d6 solution [4] | IC50 [5] [µM]
1 | closo ‐[3‐(η^6‐p‐Cymene)‐1‐(quinolin‐8‐yl‐acetate)‐3,1,2‐RuC2B9H10] [Compound 4] | 15.9 ± 0.2 | 16.9 ± 1.1 | 9.2 ± 0.1 | stable; also recorded: sufficient chemical stability | 4.9 ± 0.1
2 | closo‐ [Compound 3, closo‐ [3‐(η^6‐p‐Cymene)‐1‐(CH2COOH)‐3,1,2‐RuC2B9H10]] | 7.7 ± 0.8 | 22.9 ± 1.4 | 68.2 ± 1.3 | stable; also recorded: sufficient chemical stability | 58.5 ± 0.3
